The text below walks through data of ChEMBL document CHEMBL1139108, “New thiopyrazolo[3,4-d]pyrimidine derivatives as anti-mycobacterial agents” (Bioorg Med Chem Lett, 2007).

Molecules are shown by their SMILES. In brackets after ≈: the same amount, converted by molar mass. Where only a bound is given, the exact number is not on record here.

System in the first series: not listed separately
Put plainly: Cytotoxicity against human HepG2 cells. It counts as cell-based. To be noted: read-out: TD50 (the source's name).
For the compound `C=CCn1ncc2c(SCC#N)ncnc21`, the CC50 came out at 4 µg/mL (≈ 17.3 µM).

Turning to `Clc1ccc(CSc2ncnc3c2cnn3Cc2cccnc2)cc1`, the CC50 was over 40 µg/mL. Still for that read-out and setting: the value for `N#CCn1ncc2c(SCc3ccc(Cl)cc3)ncnc21` was 2 µg/mL (≈ 6.33 µM). On the same count and under the same terms, the figure for `c1ccc(CSc2ncnc3c2cnn3Cc2cccnc2)cc1` is over 40 µg/mL; for `C=CCn1ncc2c(SCc3ccc(Cl)cc3)ncnc21` it is over 20 µg/mL.

For the next series, the system named is Mycobacterium tuberculosis. Put plainly: Antimycobacterial activity against Mycobacterium tuberculosis H37Rv. It is filed as functional.
Conditions: not given
With `C=CCn1ncc2c(SCc3ccncc3)ncnc21`, 125 µg/mL (≈ 441 µM) was the least that counted as inhibitory (MIC). `C=CCn1ncc2c(SCc3cccnc3)ncnc21`: 250 µg/mL (≈ 882 µM) was the least that counted as inhibitory (MIC). As for `N#CCSc1ncnc2c1cnn2Cc1ccc(Cl)cc1`, the MIC (commonly the smallest concentration in the dilution series that meets the test's criterion for growth inhibition) is 125 µg/mL (≈ 396 µM). Compared with the last compound, the MIC is about 2-fold lower. With `OCCSc1ncnc2c1cnn2Cc1ccccc1`, the minimum inhibitory concentration (MIC) stood at 63 µg/mL (≈ 220 µM).

Turning to `OCCn1ncc2c(SCc3ccccc3)ncnc21`, 125 µg/mL (≈ 437 µM) was the least that counted as inhibitory (MIC). On to `Clc1ccc(CSc2ncnc3[nH]ncc23)cc1`, for which the MIC came to 250 µg/mL (≈ 903 µM). Still for that read-out and setting: the value for `C#CCSc1ncnc2c1cnn2CC=C` was 63 µg/mL (≈ 274 µM). For the compound `Clc1ccccc1CSc1ncnc2[nH]ncc12`, the MIC worked out at 250 µg/mL (≈ 903 µM). Turning to `C=CCn1ncc2c(SCc3ccccc3Cl)ncnc21`, the MIC is 32 µg/mL (≈ 101 µM). In turn, `Clc1ccccc1CSc1ncnc2c1cnn2Cc1ccccc1` showed an MIC of 250 µg/mL (≈ 681 µM). The compound `C=CCSc1ncnc2c1cnn2Cc1ccc(Cl)cc1` came in with an MIC of 16 µg/mL (≈ 50.5 µM). `c1nc(SCC2CC2)c2cn[nH]c2n1`: the MIC came to 125 µg/mL (≈ 606 µM). Take `N#CCSc1ncnc2[nH]ncc12`: the lowest concentration to inhibit growth (MIC) was 63 µg/mL (≈ 329 µM). Consider `c1ccc(CSc2ncnc3c2cnn3Cc2ccccc2)cc1`, for which inhibition of growth (MIC) required 16 µg/mL (≈ 48.1 µM). In turn, `CCCn1ncc2c(SCc3ccccc3)ncnc21` had a minimal inhibitory concentration (MIC) of 32 µg/mL (≈ 113 µM). Consider `Clc1ccccc1Cn1ncc2c(SCc3ccccc3)ncnc21`, for which inhibition of growth (MIC) required 16 µg/mL (≈ 43.6 µM). `c1ccc(Cn2ncc3c(SCc4ccncc4)ncnc32)cc1` came in with an MIC of 32 µg/mL (≈ 96 µM). Compared with the last compound, the MIC is about 2-fold higher. On the same count and under the same terms, the value for `C=CCCSc1ncnc2c1cnn2Cc1ccccc1` was 16 µg/mL (≈ 54 µM); that for `N#CCSc1ncnc2c1cnn2CC#N` was 8 µg/mL (≈ 34.7 µM).

The compound `C=CCCSc1ncnc2c1cnn2CC#N` showed an MIC of 63 µg/mL (≈ 257 µM). Compound `N#CCSc1ncnc2c1cnn2Cc1cccnc1` yielded an MIC of 63 µg/mL (≈ 223 µM). Take `C=CCSc1ncnc2c1cnn2CC=C`: the lowest concentration to inhibit growth (MIC) was 125 µg/mL (≈ 538 µM). Consider `N#CCn1ncc2c(SCc3ccccc3)ncnc21`, for which inhibition of growth (MIC) required 32 µg/mL (≈ 114 µM).

Take `C#CCSc1ncnc2c1cnn2CC#C`: the minimal inhibitory concentration (MIC) stood at 63 µg/mL (≈ 276 µM). This MIC is about 2-fold higher than that of the compound before.

As for `C=CCn1ncc2c(SCC3CC3)ncnc21`, the minimal inhibitory concentration (MIC) is 125 µg/mL (≈ 507 µM). The compound `c1ccc(Cn2ncc3c(SCC4CC4)ncnc32)cc1` had an MIC of 16 µg/mL (≈ 54 µM).

Take `C=CCCSc1ncnc2[nH]ncc12`: the minimal inhibitory concentration (MIC) is 125 µg/mL (≈ 606 µM). Turning to `C=CCSc1ncnc2c1cnn2Cc1ccccc1`, the MIC worked out at 32 µg/mL (≈ 113 µM). This MIC lies about 3.9-fold lower than the previous one. The compound `c1ccc(CSc2ncnc3[nH]ncc23)cc1` came in with an MIC of 250 µg/mL (≈ 1030 µM). Compound `Clc1ccc(CSc2ncnc3c2cnn3Cc2ccccc2)cc1` showed an MIC of 32 µg/mL (≈ 87.2 µM). Against the preceding compound, the MIC is about 7.8-fold lower. Still for that read-out and setting: the figure for `C=CCSc1ncnc2c1cnn2CCO` is 250 µg/mL (≈ 1060 µM).

`c1ccc(CSc2ncnc3c2cnn3Cc2ccncc2)cc1` displayed an MIC of 16 µg/mL (≈ 48 µM). Same read-out and setting: the figure for `C=CCSc1ncnc2c1cnn2CC1CC1` is 32 µg/mL (≈ 130 µM). Consider `C=CCSc1ncnc2c1cnn2CC#N`, for which it took 16 µg/mL (≈ 69.2 µM) to inhibit growth (MIC). The compound `C=CCSc1ncnc2c1cnn2Cc1ccncc1` showed a minimal inhibitory concentration (MIC) of 63 µg/mL (≈ 222 µM). Still for that read-out and setting: the value for `c1cncc(CSc2ncnc3[nH]ncc23)c1` was 250 µg/mL (≈ 1030 µM); that for `C=CCn1ncc2c(SCC#N)ncnc21` was 32 µg/mL (≈ 138 µM); that for `N#CCSc1ncnc2c1cnn2Cc1ccccc1` was 32 µg/mL (≈ 114 µM).

As for `Clc1ccc(CSc2ncnc3c2cnn3Cc2ccc(Cl)cc2)cc1`, the minimum inhibitory concentration (MIC) worked out at 63 µg/mL (≈ 157 µM).

The compound `Clc1ccc(CSc2ncnc3c2cnn3Cc2cccnc2)cc1` had a minimal inhibitory concentration (MIC) of 0.5 µg/mL (≈ 1.36 µM). Compound `CCCSc1ncnc2[nH]ncc12` gave a minimal inhibitory concentration (MIC) of 125 µg/mL (≈ 643 µM). Same read-out and setting: the value for `CCCSc1ncnc2c1cnn2Cc1ccccc1` was 16 µg/mL (≈ 56.3 µM); that for `C=CCn1ncc2c(SCCO)ncnc21` was 250 µg/mL (≈ 1060 µM); that for `C=CCSc1ncnc2c1cnn2Cc1cccnc1` was 63 µg/mL (≈ 222 µM).

For `C#CCSc1ncnc2c1cnn2Cc1ccccc1`, the minimum inhibitory concentration (MIC) was found to be 63 µg/mL (≈ 225 µM). Turning to `C=CCCn1ncc2c(SCc3ccccc3)ncnc21`, inhibition of growth (MIC) required 16 µg/mL (≈ 54 µM). `C#CCn1ncc2c(SCc3ccccc3)ncnc21`: it took 32 µg/mL (≈ 114 µM) to inhibit growth (MIC). Still for that read-out and setting: the value for `N#CCn1ncc2c(SCc3ccc(Cl)cc3)ncnc21` was 8 µg/mL (≈ 25.3 µM); that for `C=CCCSc1ncnc2c1cnn2Cc1ccc(Cl)cc1` was 125 µg/mL (≈ 378 µM); that for `C=CCn1ncc2c(SCCC)ncnc21` was 63 µg/mL (≈ 269 µM). In turn, `OCCSc1ncnc2[nH]ncc12` came in with a minimum inhibitory concentration (MIC) of 250 µg/mL (≈ 1270 µM). Against the preceding compound, the MIC is about 4-fold higher. With `c1ccc(Cn2ncc3c(SCc4cccnc4)ncnc32)cc1`, the lowest concentration to inhibit growth (MIC) was 32 µg/mL (≈ 96 µM). `C=CCCn1ncc2c(SCC=C)ncnc21` returned an MIC of 63 µg/mL (≈ 256 µM). Compound `C=CCSc1ncnc2c1cnn2Cc1ccccc1Cl` came in with an MIC of 63 µg/mL (≈ 199 µM). The same measure, in the same setting: the figure for `c1cc(CSc2ncnc3[nH]ncc23)ccn1` is 250 µg/mL (≈ 1030 µM); for `Clc1ccc(Cn2ncc3c(SCc4ccccc4)ncnc32)cc1` it is 16 µg/mL (≈ 43.6 µM). Still for that read-out and setting: the figure for `C=CCCSc1ncnc2c1cnn2CC=C` is 32 µg/mL (≈ 130 µM); for `C=CCSc1ncnc2c1cnn2CCC` it is 125 µg/mL (≈ 533 µM). With `C=CCCSc1ncnc2c1cnn2Cc1cccnc1`, the minimal inhibitory concentration (MIC) is 32 µg/mL (≈ 108 µM). `C=CCSc1ncnc2[nH]ncc12` showed an MIC of 250 µg/mL (≈ 1300 µM). The same measure, in the same setting: the figure for `c1ccc(CSc2ncnc3c2cnn3Cc2cccnc2)cc1` is 8 µg/mL (≈ 24 µM); for `c1ccc(CSc2ncnc3c2cnn3CC2CC2)cc1` it is 250 µg/mL (≈ 843 µM). Compound `C=CCn1ncc2c(SCc3ccc(Cl)cc3)ncnc21` yielded an MIC of 8 µg/mL (≈ 25.3 µM). In turn, `C#CCn1ncc2c(SCC=C)ncnc21` yielded a minimal inhibitory concentration (MIC) of 32 µg/mL (≈ 139 µM). This MIC is about 4-fold higher than that of the compound before. In turn, `C=CCn1ncc2c(SCc3ccccc3)ncnc21` yielded a minimal inhibitory concentration (MIC) of 32 µg/mL (≈ 113 µM). In turn, `CC[C@@H](CO)NCCN[C@@H](CC)CO` [ETHAMBUTOL] showed an MIC of 2.5 µg/mL (≈ 12.2 µM). On the same count and under the same terms, the figure for `NNC(=O)c1ccncc1` [ISONIAZID] is 0.25 µg/mL (≈ 1.82 µM). Consider `CO[C@H]1/C=C/O[C@@]2(C)Oc3c(C)c(O)c4c(O)c(c(/C=N/N5CCN(C)CC5)c(O)c4c3C2=O)NC(=O)/C(C)=C\C=C\[C@H](C)[C@H](O)[C@@H](C)[C@@H](O)[C@@H](C)[C@H](OC(C)=O)[C@@H]1C` [RIFAMPIN], for which inhibition of growth (MIC) required 0.016 µg/mL (≈ 0.0194 µM).
